Source: patent publication US20040019092A1, “Non-peptide somatostatin receptor ligands” (priority 2001, published 2004)
Several values for one entry are separate records, joined by “and”; a condition that tells them apart may be missing. Equal values may be shown once.

Legend:
[1] = tested on: GHRH induced GH secretion in primary cultures of rat pituitary cells; assay: In vitro inhibition of GHRH induced GH secretion (GH vitro +GHRH); assay type: cell-based
SSTR3 = molecular target: T1, SSTR3 (Homo sapiens, UniProt P32745); assay: Binding SSTR3; details: > = extrapolated value; read-out: Bind SSTR3
T1 construct: host or cells: SRIF receptor expressing cell cultures (general statement only)

SSTR5 = molecular target: T2, SSTR5 (Homo sapiens, UniProt P35346); assay: Binding SSTR5; details: read-out: Bind SSTR5
T2 construct: host or cells: SRIF receptor expressing cell cultures (general statement only)

[2] = molecular target: T3, human sst2 receptor sub-type (Homo sapiens, UniProt P30874); assay: In vitro binding, human sst2 receptor sub-type (SSTR2); details: Tables 8/9: Bind SSTR2 nM
T3 construct: host or cells: SRIF receptor expressing cell cultures (general statement only)
Protocol: The in vitro binding affinities for rat cortex SRIF receptors and the human sst2 receptor sub-type was assessed. Further the in vitro inhibition of the GHRH induced GH secretion in primary cultures of rat pituitary cells as well as the in vivo inhibition of GH secretion in the rat after systemic or enteral application was studied. […] Therefore, the in vivo activities of the compounds in rats with respect to inhibition of growth hormone release was also assessed. Most compounds selected were tested by enteral—intraduodenal (i.d.) application. For determination of the absolute activity and for the calculation of an enteral bioavailability, single subcutaneous (s.c.) application of intravenous (i.v.) infusion was used.

GH secretion [3] = assay: GH secretion in vivo, rat, intraduodenal (enteral) application, 1 h (basal); details: for GH vivo i.d. 1 h ID50: basal GH secretion, 1 h after intraduodenal application, mostly approximate ID50 from single 10 mg/kg dose, Ø = no effect at this dose, > = extrapolated value; for enteral ID50 (GH secretion): enteral (intraduodenal) application
GH secretion [4] = assay: GH secretion in vivo, rat, subcutaneous application, 1 h (basal); details: for GH vivo s.c. 1 h ID50: rat, basal GH secretion, 1 h after subcutaneous application
SS1 = SS1 (Rattus norvegicus, UniProt P30680); assay: SS-1 binding (Bind SS1 D.H.)
SSTR4 = molecular target: T4, SSTR4 (Homo sapiens, UniProt P31391); assay: Binding SSTR4; details: > = extrapolated value; read-out: Bind SSTR4
T4 construct: host or cells: SRIF receptor expressing cell cultures (general statement only)

[5] = tested on: GHRH stimulated GH secretion; assay: GH secretion in vivo, rat, intravenous infusion with repeated GHRH stimulation; details: for GH, Ur Inf15′ +GHRH / GH, UR Inf30′ +GHRH / GH, UR Inf60′ +GHRH: Tables 8/9, urethane; for GH, Ur Inf15′ +GHRH / INFUS. + GHRH ID50 15′: 15′ of infusion; for GH, UR Inf30′ +GHRH / INFUS. + GHRH ID50 30′: 30′ of infusion; for GH, UR Inf60′ +GHRH / INFUS. + GHRH ID50 60′: 60′ of infusion; for GH vivo Inf + GHRH ID50 (mean of time points): urethane, i.v. infusion, GHRH stimulated; for INFUS. + GHRH ID50 MEAN: Table 4, mean of infusion time points; for INFUS. + GHRH ID50 15′ / INFUS. + GHRH ID50 30′ / INFUS. + GHRH ID50 60′: Table 4, urethan
SSTR1 = molecular target: T5, SSTR1 (Homo sapiens, UniProt P30872); assay: Binding SSTR1; details: > = extrapolated value; read-out: Bind SSTR1
T5 construct: host or cells: SRIF receptor expressing cell cultures (general statement only)

[6] = tested on: GHRH stimulated GH secretion; assay: GH secretion, rat in urethan anesthesia, intraduodenal + repeated GHRH stimulation; assay type: in vivo; details: urethan
Text: No further treatment followed subcutaneous or intraduodenal application. […] This value has been determined in a total of four independent experiments. […] However, in further studies compound 47 has also been tested by the enteral route of administration after repeated stimulation of the GH secretion by GHRH. […] With most of these selected compounds additional in vivo experiments in other models (intraduodenal application followed by repeated stimulation of the GH secretion by GHRH, oral application by gavage of unanesthetized, estradiol primed rats) were performed. Table 4 summarizes data obtained for the inhibition of the stimulated GH secretion after subcutaneous, intraduodenal and intravenous application and the inhibitory effects obtained for different time points during intravenous infusion of selected hydantoins. […] [table]

prolactin secretion = assay: Unanesthetized estradiol primed male rats, oral by gavage: prolactin; assay type: in vivo, rat; details: estradiol implant male rats, oral by gavage, 1 hour; ø = no effect at this dose
Text: Table 5 summarizes the results obtained in the estradiol primed male rats that received the compounds orally by gavage. These rats have stabilized elevated GH plasma levels as well as increased prolactin levels. In contrast to normal untreated rats, who's prolactin secretion is not sensitive to the inhibitory effect of somatostain, in these rats the prolactin secretion is inhibited to a similar degree as the GH secretion. Therefore, the inhibitory effect can be measured on 2 different parameters, GH and prolactin. The mean enteral absorption and activity of the respective compounds are shown.

Sequence of SS1 (P30680 whole entry): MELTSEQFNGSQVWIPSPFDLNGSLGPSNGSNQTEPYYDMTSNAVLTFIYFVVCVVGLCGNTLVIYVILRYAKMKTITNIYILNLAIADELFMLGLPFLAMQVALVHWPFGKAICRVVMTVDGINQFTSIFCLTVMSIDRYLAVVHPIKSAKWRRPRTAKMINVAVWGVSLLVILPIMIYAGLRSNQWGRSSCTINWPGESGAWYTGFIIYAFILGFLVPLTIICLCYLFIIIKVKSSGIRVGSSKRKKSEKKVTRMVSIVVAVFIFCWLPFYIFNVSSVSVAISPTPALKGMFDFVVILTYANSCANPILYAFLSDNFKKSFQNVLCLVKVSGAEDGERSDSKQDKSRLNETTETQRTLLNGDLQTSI
T2 sequence (P35346 whole entry, species assumed): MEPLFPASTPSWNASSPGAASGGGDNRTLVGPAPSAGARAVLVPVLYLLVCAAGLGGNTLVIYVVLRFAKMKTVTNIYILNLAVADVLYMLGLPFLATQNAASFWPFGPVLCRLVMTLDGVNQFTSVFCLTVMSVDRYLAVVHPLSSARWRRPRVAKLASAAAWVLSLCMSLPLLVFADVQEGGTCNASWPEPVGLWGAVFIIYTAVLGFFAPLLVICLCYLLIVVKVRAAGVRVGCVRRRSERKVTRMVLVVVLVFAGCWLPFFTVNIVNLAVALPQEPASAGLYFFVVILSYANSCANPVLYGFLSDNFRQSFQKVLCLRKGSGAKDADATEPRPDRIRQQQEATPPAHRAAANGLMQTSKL
T4 sequence (P31391 whole entry, species assumed): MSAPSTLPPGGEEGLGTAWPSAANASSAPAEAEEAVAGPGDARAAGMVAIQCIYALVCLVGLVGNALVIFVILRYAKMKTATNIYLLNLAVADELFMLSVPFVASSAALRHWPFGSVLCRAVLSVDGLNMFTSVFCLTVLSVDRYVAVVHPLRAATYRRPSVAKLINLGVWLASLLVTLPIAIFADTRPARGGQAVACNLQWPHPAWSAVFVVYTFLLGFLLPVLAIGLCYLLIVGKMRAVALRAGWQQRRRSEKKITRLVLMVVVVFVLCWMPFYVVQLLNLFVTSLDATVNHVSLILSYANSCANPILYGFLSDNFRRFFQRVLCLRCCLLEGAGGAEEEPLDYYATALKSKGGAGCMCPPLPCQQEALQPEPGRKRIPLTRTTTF
T5 sequence (P30872 whole entry, species assumed): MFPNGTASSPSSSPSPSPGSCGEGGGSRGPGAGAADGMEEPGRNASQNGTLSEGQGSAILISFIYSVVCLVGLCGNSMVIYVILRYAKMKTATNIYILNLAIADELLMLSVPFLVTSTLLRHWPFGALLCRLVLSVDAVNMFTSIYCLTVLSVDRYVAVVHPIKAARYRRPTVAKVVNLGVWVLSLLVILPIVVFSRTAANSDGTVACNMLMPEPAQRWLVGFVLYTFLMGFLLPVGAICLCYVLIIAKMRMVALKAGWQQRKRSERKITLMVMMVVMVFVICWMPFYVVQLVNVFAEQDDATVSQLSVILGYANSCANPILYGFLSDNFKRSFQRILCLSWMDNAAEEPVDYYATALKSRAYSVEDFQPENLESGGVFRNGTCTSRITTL
T3 sequence (P30874 whole entry): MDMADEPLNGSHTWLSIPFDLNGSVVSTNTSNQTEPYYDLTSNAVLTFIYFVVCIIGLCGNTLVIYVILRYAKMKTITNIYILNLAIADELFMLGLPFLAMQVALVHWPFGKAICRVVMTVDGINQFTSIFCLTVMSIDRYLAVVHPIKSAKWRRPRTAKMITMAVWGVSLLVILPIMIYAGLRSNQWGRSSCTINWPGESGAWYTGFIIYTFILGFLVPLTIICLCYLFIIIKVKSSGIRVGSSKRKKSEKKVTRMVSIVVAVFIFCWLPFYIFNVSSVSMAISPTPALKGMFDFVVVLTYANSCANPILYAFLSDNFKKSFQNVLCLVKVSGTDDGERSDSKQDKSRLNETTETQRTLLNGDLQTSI
T1 sequence (P32745 whole entry, species assumed): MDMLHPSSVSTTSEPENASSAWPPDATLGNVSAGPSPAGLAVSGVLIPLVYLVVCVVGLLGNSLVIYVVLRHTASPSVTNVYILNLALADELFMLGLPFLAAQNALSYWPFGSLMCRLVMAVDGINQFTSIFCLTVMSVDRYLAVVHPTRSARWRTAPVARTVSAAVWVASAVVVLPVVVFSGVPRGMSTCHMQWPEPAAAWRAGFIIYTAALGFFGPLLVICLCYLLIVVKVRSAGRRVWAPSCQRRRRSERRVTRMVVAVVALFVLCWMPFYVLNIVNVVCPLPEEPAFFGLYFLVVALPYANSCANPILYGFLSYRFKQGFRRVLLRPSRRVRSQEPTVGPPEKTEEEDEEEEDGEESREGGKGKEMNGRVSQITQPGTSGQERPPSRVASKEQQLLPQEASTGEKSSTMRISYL

| SMILES | IC50 [1] [nM] | IC50 (SSTR3) [nM] | IC50 (SSTR5) [nM] | IC50 [2] [nM] | GH vivo i.d. 1 h ID50 (GH secretion [3]) | GH vivo s.c. 1 h ID50 (GH secretion [4]) [mg/kg] | Bind SS1 D.H. (SS1) [nM] | IC50 (SSTR4) [nM] | GH, Ur Inf15′ +GHRH [5] | GH, UR Inf30′ +GHRH [5] [µg/kg/h] | GH, UR Inf60′ +GHRH [5] [µg/kg/h] | GH vivo Inf + GHRH ID50 (mean of time points) [5] [µg/kg/h] | IC50 (SSTR1) [nM] | enteral ID50 (GH secretion) (GH secretion [3]) [mg/kg] | INTRADUODENAL + GHRH ID50 15′ ([6]; ø = no effect at this dose) [mg/kg] | INTRADUODENAL + GHRH ID50 30′ [6] [mg/kg] | INTRADUODENAL + GHRH ID50 60′ [6] [mg/kg] | INFUS. + GHRH ID50 MEAN [5] [mg/kg] | INFUS. + GHRH ID50 15′ [5] [mg/kg] | INFUS. + GHRH ID50 30′ [5] [mg/kg] | further results |
| --- | --- | --- | --- | --- | --- | --- | --- | --- | --- | --- | --- | --- | --- | --- | --- | --- | --- | --- | --- | --- | --- |
| Cc1cccc2c(CC3C(=O)N(CCCCCN)C(=O)N3S(=O)(=O)c3ccc(Oc4ccc(O)cc4)c(C#N)c3)c[nH]c12 (stereo not shown) [Compound 14] | 11 | 300 | 450 | 5.7 | >30 mg/kg | 1.16 | 2.50 | > 1000 | ˜44 μg/kg/h | 11.000 | 14.000 | 19.000 | > 1000 | – | – | – | – | – | – | – | EC50 for inhibition of GH release, subcutaneous (GH secretion [4]; applied subcutaneous): ~1 mg/kg; SS-1 binding pKd (SS1): 8.56 |
| N#Cc1cc(S(=O)(=O)N2C(=O)N(CCCCCN)C(=O)C2Cc2c[nH]c3ccccc23)ccc1Oc1ccc(N)cc1 (stereo not shown) [Compound 42] | 255 | 2800 | 1400 | 44 | Ø10000 μg/kg | – | – | 5300 | 856.000 µg/kg/h | 434.000 | 425.000 | 540.000 | 50000 | – | – | – | – | – | – | – | – |
| Cc1cccc2c(CC3C(=O)N(CCCCCN)C(=O)N3S(=O)(=O)c3ccc(Oc4ccc(O)c(Cl)c4)c(C#N)c3)c[nH]c12 (stereo not shown) [Compound 44] | 1.7 | > 1000 | 170 | 2.7 | 9.721 mg/kg | 0.258 | 1.00 | > 1000 | 50 µg/kg/h | 30 | 21 | – | > 1000 | 9.7 | 13 | 16 | 19 | 0.0432 | 0.0724 | 0.041 | GH vivo s.c. 1 h ID50 (GH secretion [4]; listed as 44 ch): 0.258 mg/kg; INFUS. + GHRH ID50 60′ [5]: 0.0271 mg/kg; GH vivo Inf + GHRH ID50 (mean of time points) ([5]; listed as 44 ch): 43.00 µg/kg/h and 32 µg/kg/h; PROLACT 1 H ID50 (prolactin secretion): ø10000 μg/kg |
| Cc1cccc2c(CC3C(=O)N(CCCCCN)C(=O)N3S(=O)(=O)c3ccc(Oc4ccc(O)cc4)c(CN)c3)c[nH]c12 (stereo not shown) [Compound 45] | 5.1 | 220 | 97 | 3 | 11.4 mg/kg | 0.048 | 1.00 | > 1000 | 34.000 µg/kg/h | 30.000 | 30.000 | – | 1400 | 11.4 | 4.663 | 6.52 | 14.047 | 0.03105 | 0.034 | 0.03 | enteral bioavailability (from ID50 ratio) (GH secretion [3]; intraduodenal 1 hour vs parenteral ID50): =0/42%; GH vivo s.c. 1 h ID50 (GH secretion [4]; listed as 45 ch): 0.048 mg/kg; GH vivo s.c. 1 h ID50 (GH secretion [4]; listed as 45 dch): 0.048 mg/kg; INTRADUODENAL + GHRH ID50 120′ ([6]; 120′, ø = no effect at this dose): ˜22000 μg/kg; INFUS. + GHRH ID50 60′ [5]: 0.031 mg/kg; GH vivo Inf + GHRH ID50 (mean of time points) ([5]; listed as 45 ch): 30.000 µg/kg/h; GH vivo Inf + GHRH ID50 (mean of time points) ([5]; listed as 45 dch): 31.05 µg/kg/h and 30.000 µg/kg/h; PROLACT 1 H ID50 (prolactin secretion): 16 mg/kg |
